Measurements published in US20250051350A1, “Dihydroartemisinin derivatives and the treatment of fibrotic diseases” (GreenStone Biosciences, Inc., priority 2023, published 2025).

Assays:
[1] = test system: Induced pluripotent stem cell-derived cardiac fibroblasts (ACTA2-GFP); test: Antifibrotic effects in TGF-β-activated iPSC-derived cardiac fibroblasts (ACTA2-GFP fluorescence); assay type: cell-based; conditions: activated with TGF-β, 48 hours; for IC50: simultaneous treatment, ACTA2-GFP fluorescence, read-out: IC50, reduction in fluorescence
From the text: Induced pluripotent stem cell-derived cardiac fibroblasts were constructed containing a fusion of the alpha-smooth muscle actin to the green fluorescent protein (ACTA2-GFP) construct. ACTA2 is a myofibroblast marker, such that the fibroblasts fluoresce with an intensity dependent on the extent of fibrosis.

in vitro = in vitro ADME; conditions: for fraction unbound: plasma
Procedure: Plasma protein binding assays were conducted in triplicate for compounds PT-2, PT-14, PT-28, and PT-30, with artesunate, DHA, and warfarin as comparators.

[2] = Intravenous and oral pharmacokinetics in mice; assay type: in vivo; conditions: male C57BL/6J mice; for IV AUC0-last / IV Clearance / IV T1/2 / IV VD,ss / PO AUC0-last / PO T1/2: plasma
Procedure: The intravenous (IV) and oral (PO) pharmacokinetics of the PT compounds were measured in 6-10 week-old male C57BL/6J mice, using three mice/group. The test compounds were formulated in an appropriate water-based vehicle to give a clear solution for IV administration, or a clear solution or uniform suspension for PO administration. Animals were dosed within 4 hours of the preparation of the formulations; with the dose volume being determined by the animal's body weight measured on the morning of the dosing day. Blood samples (about 25 μL per time point) were taken at 5 and 15 minutes and 1, 3, and 5 hours after dosing, into pre-chilled EDTA-K2 tubes and kept on wet ice until centrifugation. The tubes were centrifuged at 3200×g at about 4° C. for 10 minutes, and the plasma analyzed by LC-MS/MS.

[3] = test system: MD2 signaling pathway (HEK Blue-TLR4 cells); test: HEK Blue-TLR4 assay (MD2 pathway); assay type: cell-based; conditions: 1 h preincubation, 10 ng/mL lipopolysaccharide, read after 20 hours at 655 nm
Procedure: HEK Blue-TLR4 cells were plated in detection media, preincubated with vehicle or PT-2, PT-14, or PT-30 dissolved in vehicle (with artesunate, DHA, and artemisinin comparators) for 1 h, then co-stimulated with 10 ng/mL lipopolysaccharide. Reporter activity was read after 20 hours at 655 nm in a spectrophotometer. The PT compounds were active in this assay, showing that they inhibit the MD2 signaling pathway.

SMILES | reduction in fluorescence (fibrotic marker ACTA2-GFP) ([1]; various concentrations) | recovery (in vitro; human) [%] | fraction unbound (in vitro; human) | recovery (in vitro; mouse) [%] | fraction unbound (in vitro; mouse) | IC50 [1] [nM] | IV AUC0-last [2] [ng·h/mL] | IV Clearance [2] [mL/min/kg] | IV T1/2 [2] [min] | IV VD,ss [2] [L/kg] | PO Bioavailability [2] [%] | PO AUC0-last [2] [ng·h/mL] | PO T1/2 [2] [min] | activity in HEK Blue-TLR4 reporter assay (inhibition of MD2 signaling pathway) [3]
C[C@H]1[C@@H](O)OC2O[C@@]3(C)CC[C@H]4[C@H](C)CC[C@@H]1[C@@]24OO3 (stereo in doubt) [DHA, (3R,5aS,6R,8aS,9R,12S,12aR)-decahydro-3,6,9-trimethyl-3,12-epoxy-12H-pyrano[4,3-j]-1,2-benzodioxepin-10-ol] | dose-dependent reduction in fluorescence | 102 | 0.108 | 105 | 0.1 | – | – | – | – | – | – | – | – | –
CC(CO)C(=O)OC1OC2OC3(C)CCC4C(C)CCC(C1C)C24OO3 (centres unmarked) [PT-1, DHA 3-hydroxy-2-methylpropionate] | – | – | – | – | – | 2300 | 100 | 1280 | 7.8 | 9.0 | 1.3 | 20 | 22.2 | –
C[C@H]1[C@@H](OC(=O)C(C)(C)CO)O[C@@H]2O[C@@]3(C)CC[C@H]4[C@H](C)CC[C@@H]1[C@@]24OO3 [PT-2, DHA 3-hydroxy-2,2-dimethylpropanoate] | – | – | – | – | – | 880 | 1200 | 140 | 6 | 1.3 | 27 | 3200 | – | active
CC1CCC2C(C)C(OC(=O)CC(C)(C)O)OC3OC4(C)CCC1C32OO4 (centres unmarked) [PT-4, DHA 3-hydroxy-3-methylbutanoate] | – | – | – | – | – | 5600 | 600 | 280 | 6.6 | 2.0 | 11 | 500 | 10.8 | –
CC1CCC2C(C)C(OC(=O)N3CC(O)C3)OC3OC4(C)CCC1C32OO4 (centres unmarked) [PT-13, DHA 3-hydroxyazetidine-1-carboxylate] | – | – | – | – | – | 2600 | 2200 | 76 | 7.2 | 0.9 | 64 | 14100 | 41.4 | –
CC1CCC2C(C)C(OC(=O)N3CC(C)(O)C3)OC3OC4(C)CCC1C32OO4 (centres unmarked) [PT-14, DHA 3-hydroxy-3-methylazetidine-1-carboxylate] | – | – | – | – | – | 570 | 2200 | 75 | 10.8 | 1.1 | 92 | 20500 | 39.6 | active
CC1CCC2C(C)C(OC(=O)N(C)CCO)OC3OC4(C)CCC1C32OO4 (centres unmarked) [PT-20, DHA (2-hydroxyethyl)(methyl)carbamate] | – | – | – | – | – | – | 2400 | 69 | 14.4 | 0.8 | 73 | 17700 | 31.8 | –
